Several values for one entry are separate records, joined by “and”; a condition that tells them apart may be missing. Identical values can stand only once.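 Cells were grown in 96-well plates and exposed to each compound for 48 hours at five concentrations; endpoints were interpolated linearly between bracketing concentrations, or set to the highest concentration if not reached. Abbreviation: GI50, concentration required for 50% inhibition of growth. TGI denotes the concentration required for complete inhibition of growth.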
Assays:
Assay in all cases: NCI-60 cell line screen, 48 h
COLO 205 colon = tested on: COLO 205 colon
EKVX NSCLC = tested on: EKVX NSCLC
K-562 leukemia = tested on: K-562 leukemia
MALME-3M melanoma = tested on: MALME-3M melanoma
MOLT-4 leukemia = tested on: MOLT-4 leukemia
NCI-H23 lung = tested on: NCI-H23 lung
OVCAR-4 ovarian = tested on: OVCAR-4 ovarian
SF-295 CNS = tested on: SF-295 CNS

Compound | GI50 (COLO 205 colon) | TGI (COLO 205 colon) | GI50 (EKVX NSCLC) | TGI (EKVX NSCLC) [µM] | GI50 (K-562 leukemia) | TGI (K-562 leukemia) [µM] | GI50 (MALME-3M melanoma) | TGI (MALME-3M melanoma) [µM] | GI50 (MOLT-4 leukemia) | TGI (MOLT-4 leukemia) [µM] | GI50 (NCI-H23 lung) | TGI (NCI-H23 lung) | GI50 (OVCAR-4 ovarian) | TGI (OVCAR-4 ovarian) [µM] | GI50 (SF-295 CNS) | TGI (SF-295 CNS) [µM]
CCCN1CCC=C(c2ccc(Nc3nc(Nc4ccccc4C(N)=O)c4cc[nH]c4n3)c(C)c2)C1 | 2.37 µM | 8.68 µM | > 17.8 µM | > 25 | 4.42 µM | > 22.8 | 5.35 µM | > 25 | 7.79 µM | > 21 | 8.16 µM | > 25 µM | > 14.6 µM | > 25 | > 25 µM | > 25
COc1cc(Cn2c(-c3ccccc3)cc3c2-c2oncc2CC3)cc(OC)c1 | 0.256 µM | 0.653 µM | 0.449 µM | > 100 | 0.201 µM | > 100 |  |  | 0.427 µM | > 100 | 0.452 µM | > 100 µM | 0.664 µM | > 100 | 0.209 µM | 4.03
NS(=O)(=O)c1ccc(NC(=O)c2cccc(NC3=C(Cl)C(=O)N(Cc4ccccc4)C3=O)c2)cc1 | 22.6 µM | 85.8 µM | 17.6 µM | 38.8 | 2.27 µM | 6.09 |  |  | 2.09 µM | 7.99 |  |  | 35.7 µM | > 100 | 5.59 µM | 22.5
CN(C(=O)CNC(=O)/C=C/c1cccc(Cl)c1)C1CCS(=O)(=O)CC1 | 1.1 µM | > 100 µM | 34.3 µM | > 100 |  |  | 3.45 µM | > 100 | 2.12 µM | > 100 |  |  | 5.9 µM | > 100 | 5.03 µM | > 100
Nc1nc(N)c2c(n1)NC(c1sc(Cl)nc1Cl)CC(c1ccc3c(c1)OCO3)=N2 (stereo not given) | 3.48 µM | 12.7 µM |  |  | 0.542 µM | > 100 | 14.3 µM | 29.1 | 5.91 µM | 41.9 | 8.87 µM | 38.2 µM |  |  | 2.21 µM | 12.3
Oc1ccc(Cl)cc1/C=N\NC(=S)N/N=C/c1cc(Cl)ccc1O | 3.34 µM | 41.6 µM | 3.23 µM | > 100 | 2.63 µM | > 100 | 2.14 µM | 52.7 | 2.23 µM | 7.62 | 4.61 µM | 67.7 µM | 2.25 µM | 50.3 | 3 µM | > 100
CC1=C(N2CC2)C(=O)c2ccccc2C1=O |  | 2.05 µM |  | 0.744 |  | 3.5 |  | 2.65 |  | 16.3 |  |  |  | 7.36 |  | 2.48
Nc1ccn(C2OC(C(OC3OC(CO)C(O)C(N)C3O)C(O)C(O)C(O)C(O)CO)C(N)C(O)C2O)c(=O)n1 (stereo not given) |  | > 100 µM |  | > 100 |  |  |  |  |  | > 100 |  | > 100 µM |  | 14.8 |  | 58
O=C(NOCCO)c1cc(CN2OCCCC2=O)c(F)c(F)c1Nc1ccc(I)cc1F | < 0.01 µM and 0.00219 µM | 14.9 µM and > 10 µM | 0.0599 µM and 0.0806 µM | > 74.5 | 1.01 µM and 1.42 µM | > 100 | < 0.01 µM and 0.00185 µM | < 0.01 | 38.2 µM and > 10 µM | > 100 | < 0.0222 µM and 0.0545 µM | 26.5 µM and > 10 µM | 6.13 µM and > 7.82 µM | > 90.4 | 16.9 µM and > 10 µM | > 75.4
COc1ccc(C(=O)c2cc3c(N)c(C(=O)Nc4cccc(OC)c4)sc3nc2C)cc1 | 1 µM | > 59 µM | 0.997 µM | > 100 | 0.378 µM | > 100 | 0.593 µM | > 100 | 0.745 µM | > 100 | 1.7 µM | > 100 µM | 3.01 µM | > 100 | 0.601 µM | > 100
Nc1c(C(=O)Nc2cccc3ccccc23)sc2nc3c(cc12)C(=O)CCC3 | 0.15 µM | 0.418 µM |  |  | 0.131 µM | > 100 | 0.841 µM | 54.7 | 0.659 µM | > 100 | 0.315 µM | > 42.2 µM | 2.77 µM | > 51.7 | 0.0779 µM | 
Cc1cc2nc3c4ccc(Br)cc4n(CCN(C)C)c3nc2cc1C |  |  | 2.02 µM | 6.58 |  |  | 1.44 µM | 2.92 | 0.412 µM | 5.62 | 1.5 µM | 3.47 µM | 1.62 µM | 7.49 | 0.804 µM | 2.91
O=C(Nc1cccc(C(F)(F)F)c1)c1cc2ccccc2cc1O | 1.9 µM | 4.6 µM | 1.87 µM | 7.69 | 0.487 µM | > 100 | 1.15 µM | 6.74 | 3.37 µM | > 35.6 | 0.67 µM | 8.14 µM | 2.04 µM | > 71.1 | 2.86 µM | 8.68
Cc1cc(Nc2nc(-c3ccncc3)nc3ccccc23)n[nH]1 | 2.17 µM | 6.4 µM |  |  | 4.99 µM | > 100 | > 100 µM | > 100 | 33.9 µM | > 100 |  |  | 15.5 µM | > 100 | 17.4 µM | > 100
C/C(=N/O)c1ccc(Nc2cc(-n3ccnc3)c3ccccc3n2)cc1 | 11.8 µM | > 100 µM | 22 µM | > 100 | 3.27 µM | > 100 | 11.4 µM | 44.5 | 2.95 µM | 18.5 | 42 µM | > 100 µM |  |  | 15.1 µM | > 100
O=C(/C=C/c1cccc2ccccc12)Nc1ncc(Cc2ccccc2)s1 | 1.48 µM | > 100 µM | 1.12 µM | > 100 | 0.397 µM | > 100 | 0.627 µM | > 100 | 1.65 µM | > 100 | 1.58 µM | > 100 µM | 2.12 µM | 5.16 | 0.443 µM | 2.33
